The results in this text go back to article PMC10210181 (ACS Omega, 2023).

Molecules are shown by their SMILES.

In the assay the target is S. aureus DNA gyrase (Staphylococcus aureus, UniProt P0A0K8+P20831). Put plainly: DNA gyrase supercoiling assay, purified gyrase and relaxed plasmid DNA kit. In kind it is biochemical.
S. aureus DNA gyrase, sequence (P20831 whole entry): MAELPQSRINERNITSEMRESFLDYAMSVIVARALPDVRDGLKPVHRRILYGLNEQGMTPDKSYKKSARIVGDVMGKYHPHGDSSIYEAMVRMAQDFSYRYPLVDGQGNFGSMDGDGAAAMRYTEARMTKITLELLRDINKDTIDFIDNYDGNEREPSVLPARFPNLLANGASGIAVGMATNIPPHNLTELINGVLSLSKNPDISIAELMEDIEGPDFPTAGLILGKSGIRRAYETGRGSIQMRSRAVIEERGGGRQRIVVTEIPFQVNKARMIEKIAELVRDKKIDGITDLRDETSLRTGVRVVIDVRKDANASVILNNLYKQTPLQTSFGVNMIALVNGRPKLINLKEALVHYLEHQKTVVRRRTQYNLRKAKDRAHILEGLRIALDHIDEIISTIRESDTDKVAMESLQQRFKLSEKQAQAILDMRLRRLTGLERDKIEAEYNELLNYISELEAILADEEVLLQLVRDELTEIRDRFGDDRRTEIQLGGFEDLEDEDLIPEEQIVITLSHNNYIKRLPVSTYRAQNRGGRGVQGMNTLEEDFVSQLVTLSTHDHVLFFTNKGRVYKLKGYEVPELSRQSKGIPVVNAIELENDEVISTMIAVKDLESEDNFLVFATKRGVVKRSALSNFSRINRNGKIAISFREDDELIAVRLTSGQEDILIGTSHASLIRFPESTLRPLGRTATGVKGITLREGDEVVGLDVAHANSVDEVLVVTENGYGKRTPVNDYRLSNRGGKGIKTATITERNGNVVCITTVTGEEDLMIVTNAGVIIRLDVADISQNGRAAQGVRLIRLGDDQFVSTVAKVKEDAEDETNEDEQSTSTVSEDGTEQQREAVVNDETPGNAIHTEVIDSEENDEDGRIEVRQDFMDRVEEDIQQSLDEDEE
S. aureus DNA gyrase, sequence (P0A0K8 2-644): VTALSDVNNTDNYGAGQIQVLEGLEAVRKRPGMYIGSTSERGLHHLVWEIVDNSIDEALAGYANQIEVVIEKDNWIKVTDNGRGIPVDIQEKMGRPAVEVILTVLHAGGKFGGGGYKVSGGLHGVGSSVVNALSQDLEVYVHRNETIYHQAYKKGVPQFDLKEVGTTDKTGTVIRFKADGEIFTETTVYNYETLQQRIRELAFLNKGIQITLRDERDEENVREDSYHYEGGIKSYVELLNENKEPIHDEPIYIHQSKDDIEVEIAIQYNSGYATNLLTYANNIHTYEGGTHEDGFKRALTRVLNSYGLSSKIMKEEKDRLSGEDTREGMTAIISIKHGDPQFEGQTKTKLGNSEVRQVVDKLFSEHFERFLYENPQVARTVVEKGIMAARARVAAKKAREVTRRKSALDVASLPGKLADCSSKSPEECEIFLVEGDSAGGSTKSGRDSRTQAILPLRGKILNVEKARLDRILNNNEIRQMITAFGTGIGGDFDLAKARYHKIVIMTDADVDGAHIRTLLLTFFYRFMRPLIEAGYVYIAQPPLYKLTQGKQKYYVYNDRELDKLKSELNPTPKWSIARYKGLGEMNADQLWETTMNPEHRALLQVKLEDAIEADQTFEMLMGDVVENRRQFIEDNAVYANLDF

`COc1ccc(NC(=O)CNNC(=O)c2cc(-c3ccc(Br)cc3)nc3ccccc23)cc1` [6b, 2-(2-(2-(4-Bromophenyl)quinoline-4-carbonyl)hydrazinyl)-N-(4-methoxyphenyl)acetamide]: the IC50 was 33.6 µM.

The compound `N=C1CC(N)=NN1C(=O)c1cc(-c2ccc(Br)cc2)nc2ccccc12` [compound 10, (3-Amino-5-imino-4,5-dihydro-1H-pyrazol-1-yl)(2-(4-bromophenyl)quinolin-4-yl)methanone] returned an IC50 of 8.45 µM.

By IC50 is commonly meant the concentration needed to halve the response being measured. A high value points to lower potency.
